In patent US20190337924A1, “SUBSTITUTED HYDANTOIN AND THIOHYDANTOIN DERIVATIVES AS ANDROGEN RECEPTOR ANTAGONISTS” (Janssen Pharmaceutica NV, priority 2016, published 2019) one finds IC50 and melting point data, which are given here for 14 compounds.

One data set relates to LNCaP F876L. Kind of data set: LNCaP Proliferation Assay, LNCaP F876L. It is filed as cell-based. To be noted: Homo sapiens, 96 h, 1% CSS, 4 days, CellTiter-Glo, normalized to 0.1 nM R1881 stimulation. The protocol:
(§1) LNCaP cells were expanded in RPMI 10% FBS in T150 flasks. The cells were dislodged with 0.25% Trypsin, washed in complete media, centrifuged (300 g, 3 min), and the supernatant aspirated. The cells were resuspended in RPMI phenol-red free media with 1% charcoal-stripped serum (CSS) and counted using a ViCELL (Beckman-Coulter). 7500 cells were added to each well of a white optical bottom 384-well plate and incubated for 2 days at 37° C. 5% CO2. Compound dilutions were prepared in RPMI CSS using 50 mM stock solutions and added to the cells either alone (agonist mode) or in combination with 0.1 nM R1881 (antagonist mode). The plates were incubated for 4 days, followed by addition of CellTiter-Glo Luminescent Cell Viability kit reagent (Promega). The plates were placed on a shaker at 3000 rpm for 10 minutes and then read on an EnVision plate reader (Perkin Elmer) using Luminescence assay default settings. The data was analyzed, normalized to 0.1 nM R1881 stimulation, and plotted in GraphPad Prism.

In another data set the test system is VCaP cells. Put plainly: Prostate Cancer Cell Viability Assay-VCaP. The format is cell-based. The conditions noted are these: Homo sapiens, 120 h, 10% Charcoal Stripped Serum, 5 days, CellTiter-Glo, * n = 1. Here is the method: VCaP cells were counted and seeded into black 384-well plates with clear bottoms at a concentration of 125,000 cells per mL in phenol red-free DMEM containing 10% Charcoal Stripped Serum. 16 μL of the suspension was added per well and incubated for 48 h to allow the cells to adhere. After 48 hours, a 12 point serial semilog dilution of each compound was added to the cells in 16 μL at a final concentration of 100 µM to 0.0003 μM. The compounds of Formula (I) were also run in antagonist mode using 30 pM R1881 in which 8 μL of the compound was added to the cells followed by 8 μL of R1881. After 5 days of incubation at 37° C., 16 μL Of CellTiter-Glo (Promega) was added to the cells and the relative luminescence units (RLUs) of each well determined using the Envision. The percent stimulation and % inhibition were determined for each sample and plotted using GraphPad Prism.

The next data set has as its system LNCaP WT. Put plainly: LNCaP Proliferation Assay, LNCaP WT. To be noted: Homo sapiens, 96 h, 1% CSS, 4 days, CellTiter-Glo, normalized to 0.1 nM R1881 stimulation. It is filed as cell-based. Here is the method: as §1

Counter-ions that a name gives are not always drawn.

For `CN1CCC(Oc2ccc(N3C(=S)N(c4ccc(C#N)c(Cl)c4)C(=O)C3(C)C)cn2)CC1` [Compound 10, 2-Chloro-4-(4,4-dimethyl-3-(6-((1-methylpiperidin-4-yl)oxy)pyridin-3-yl)-5-oxo-2-thioxoimidazolidin-1-yl)benzonitrile hydrochloride], the half-maximal inhibitory concentration (IC50) in the data set with LNCaP F876L was determined as 0.83 µM; in the data set with VCaP cells it was 5540 nM; with LNCaP WT, 0.46 µM.
Taken in the same sequence, the figures for `COc1cc(N2C(=O)C3(CCC3)N(c3ccc(OC4CCN(C)CC4)cc3)C2=S)ccc1C#N` [Compound 19, 2-Methoxy-4-(5-(4-((1-methylpiperidin-4-yl)oxy)phenyl)-8-oxo-6-thioxo-5,7-diazaspiro[3.4]octan-7-yl)benzonitrile] were 21.4 µM, 9870 nM and 27.4 µM.
Taken in the same sequence, the figures for `CN1CCC(Oc2ccc(N3C(=S)N(c4ccc(C#N)c(C(F)(F)F)c4)C(=O)C34CCC4)cn2)CC1` [Compound 14, 4-(5-(6-((1-Methylpiperidin-4-yl)oxy)pyridin-3-yl)-8-oxo-6-thioxo-5,7-diazaspiro[3.4]octan-7-yl)-2-(trifluoromethyl)benzonitrile] were 1.25 µM, 13100 nM and 2.44 µM.
Turning to `CN1CCC(Oc2ccc(N3C(=S)N(c4ccc(C#N)c(C(F)(F)F)c4)C(=O)C3(C)C)cc2)CC1` [Compound 2, 4-(4,4-Dimethyl-3-(4-((1-methylpiperidin-4-yl)oxy)phenyl)-5-oxo-2-thioxoimidazolidin-1-yl)-2-(trifluoromethyl)benzonitrile hydrochloride], the IC50 in the data set with LNCaP F876L is 1.31 µM; in the data set on LNCaP WT, 1.37 µM.
As to `Cc1cc(N2C(=O)C3(CCC3)N(c3ccc(OC4CCN(C)CC4)nc3)C2=S)ccc1C#N` [Compound 18, 2-Methyl-4-(5-(6-((1-methylpiperidin-4-yl)oxy)pyridin-3-yl)-8-oxo-6-thioxo-5,7-diazaspiro[3.4]octan-7-yl)benzonitrile], the results for the IC50 in the data set on LNCaP F876L, in the data set with VCaP cells and with LNCaP WT were 0.84 µM, 12100 nM and 1.53 µM, respectively.
The compound `N#Cc1ccc(N2C(=O)C3(CCC3)N(c3cnc(OC4CCNCC4)nc3)C2=S)cc1C(F)(F)F` [Compound 15, 4-(8-Oxo-5-(2-(piperidin-4-yloxy)pyrimidin-5-yl)-6-thioxo-5,7-diazaspiro[3.4]octan-7-yl)-2-(trifluoromethyl)benzonitrile] yielded a melting point of 137.4 °C. Besides, the IC50 in the data set on LNCaP F876L amounted to 1.53 µM. In addition, the IC50 with LNCaP WT turned out to be 3.43 µM.
`CN1CCC(Oc2ccc(N3C(=S)N(c4ccc(C#N)c(Cl)c4)C(=O)C34CCC4)cc2)CC1` [Compound 22, 2-Chloro-4-(5-(4-((1-methylpiperidin-4-yl)oxy)phenyl)-8-oxo-6-thioxo-5,7-diazaspiro[3.4]octan-7-yl)benzonitrile]: the melting point was determined as 152.2 °C. Moreover, in the data set on LNCaP F876L, the 50% inhibitory concentration (IC50) came out at 3.78 µM. In the data set on VCaP cells, this compound displayed an IC50 of 580 nM. In the data set with LNCaP WT, the IC50 was determined as 2.83 µM.
As for `N#Cc1ccc(N2C(=O)C3(CCC3)N(c3ccc(OC4CCNCC4)nc3)C2=S)cc1Cl` [Compound 23, 2-Chloro-4-(8-oxo-5-(6-(piperidin-4-yloxy)pyridin-3-yl)-6-thioxo-5,7-diazaspiro[3.4]octan-7-yl)benzonitrile hydrochloride], the 50% inhibitory concentration (IC50) amounted to 540 nM in the data set with VCaP cells and 3.19 µM with LNCaP WT.
With `N#Cc1ccc(N2C(=O)C3(CCC3)N(c3ccc(OC4CCNCC4)cc3)C2=S)cc1Cl` [Compound 21, 2-Chloro-4-(8-oxo-5-(4-(piperidin-4-yloxy)phenyl)-6-thioxo-5,7-diazaspiro[3.4]octan-7-yl)benzonitrile], the melting point was found to be 211 °C. In addition, in the data set on LNCaP F876L, the IC50 stood at 3.78 µM. The same compound yielded an IC50 with VCaP cells of 1250 nM. The IC50 in the data set on LNCaP WT is 2.23 µM.
For `CC1(C)C(=O)N(c2ccc(C#N)c(C(F)(F)F)c2)C(=S)N1c1cnc(OC2CCNCC2)nc1` [Compound 5, 4-(4,4-Dimethyl-5-oxo-3-(2-(piperidin-4-yloxy)pyrimidin-5-yl)-2-thioxoimidazolidin-1-yl)-2-(trifluoromethyl)benzonitrile] the same measures were 239 °C, 0.95 µM, 13200 nM and 1.04 µM.
For the compound `COc1cc(N2C(=O)C3(CCC3)N(c3ccc(OC4CCN(C)CC4)nc3)C2=S)ccc1C#N` [Compound 20, 2-Methoxy-4-(5-(6-((1-methylpiperidin-4-yl)oxy)pyridin-3-yl)-8-oxo-6-thioxo-5,7-diazaspiro[3.4]octan-7-yl)benzonitrile], the values for the IC50 in the data set with LNCaP F876L, in the data set on VCaP cells and in the data set with LNCaP WT were 1.69 µM, 1400 nM and 3.65 µM, respectively.
For `CC1(C)C(=O)N(c2ccc(C#N)c(Cl)c2)C(=S)N1c1ccc(OC2CCNCC2)cc1` [Compound 7, 2-Chloro-4-(4,4-dimethyl-5-oxo-3-(4-(piperidin-4-yloxy)phenyl)-2-thioxoimidazolidin-1-yl)benzonitrile hydrochloride] the same measures were 31.2 µM, 1440 nM and 10 µM.
Consider `N#Cc1ccc(N2C(=O)C3(CCC3)N(c3ccc(OC4CCNCC4)nc3)C2=S)cc1C(F)(F)F` [Compound 13, 4-(8-Oxo-5-(6-(piperidin-4-yloxy)pyridin-3-yl)-6-thioxo-5,7-diazaspiro[3.4]octan-7-yl)-2-(trifluoromethyl)benzonitrile hydrochloride], for which the IC50 in the data set on VCaP cells worked out at 540 nM; in the data set on LNCaP WT, 109 µM.
On to `CN1CCC(Oc2ccc(N3C(=S)N(c4ccc(C#N)c(C(F)(F)F)c4)C(=O)C3(C)C)cn2)CC1` [Compound 4, 4-(4,4-Dimethyl-3-(6-((1-methylpiperidin-4-yl)oxy)pyridin-3-yl)-5-oxo-2-thioxoimidazolidin-1-yl)-2-(trifluoromethyl)benzonitrile hydrochloride], for which the figures for the IC50 in the data set on LNCaP F876L, in the data set with VCaP cells and in the data set on LNCaP WT were 0.85 µM, 1660 nM and 0.46 µM, respectively.
